From article PMC6952396, “Structural basis for itraconazole-mediated NPC1 inhibition” (Nature Communications, 2020)
Entries after “also recorded” stand apart in the source; their conditions may differ.

Legend:
human NPC1 = system: T1, human NPC1; assay: P-X cross-linking to purified NPC1; assay type: binding; conditions: for competition with cross-linking of P-X to purified NPC1: 0.3 μM P-X, amphipol-reconstituted NPC1 without detergent, in-gel fluorescence
T1 construct: Strep-tag; made in house; host or cells: HEK-293S GnTI- cells (baculovirus-mediated transduction)
Procedure: To determine the binding site for itraconazole on NPC1, we expressed and purified the NPC1 protein using n-dodecyl β-D-maltoside (DDM) as the detergent. The protein was then incorporated into amphipol A8-35 and the detergent was removed with bio-beads and further separated by gel filtration in phosphate buffered saline (PBS).
For Cross-Linking of P-X to purified NPC1 protein, each reaction contained 0.5 μg of indicated protein, 0.3 μM P-X, and various amounts of itraconazole in a final volume of 100 μL of buffer containing 50 mM Hepes pH7.5 and 150 mM NaCl with or without 0.1% Digitonin (Calbiochem). After incubation for 1 h at 37 °C, the mixture was subjected to UV cross-linking for 10 min and then tagged with Alexa Fluor 532 by means of copper-catalyzed azide-alkyne cycloaddition (click chemistry)[22],[41]. The reactions were carried out by mixing an aliquot of each mixture (50 μL), in a final volume of 58.5 μL, with 3 μL of 1.7 mM Tris[(1-benzyl-1H-1,2,3-triazol-4-yl) methyl] amine (TBTA), 2 μL of 50 mM CuSO4, 1 μL of 50 mM Tris(2-carboxyethyl) phosphine (TCEP), 1.5 μL 10% SDS and 1 μL of 1.25 mM Alexa Fluor 532 azide. The mixture was incubated at room temperature for 1 h.
To visualize the fluorescent-labeled proteins by in-gel fluorescence, 20 μL. aliquots of each sample were mixed with 4x loading dye and subjected to 8% SDS/PAGE, after which the gels were scanned with a Typhoon image scanner (GE Healthcare; filter setting: excitation, […]; emission, 555 nm; high sensitivity). After scanning the gel, the proteins were transferred to nitrocellulose and blotted with rabbit monoclonal anti-NPC1 as indicated in the figure legends.
Human NPC1 protein was expressed and purified as previously described, except for using Strep-tag instead of His-tag. Briefly, the protein was expressed using baculovirus-mediated transduction of mammalian HEK-293S GnTI^− cells (ATCC, CRL-3022). At 48 h post infection, the cells were disrupted by sonication in buffer B, containing 20 mM Hepes, pH7.5, 150 mM NaCl with 1 mM PMSF and 5 μg/mL leupeptin. After low speed centrifugation, the resulting supernatant was incubated in buffer B with 1% (w/v) DDM for 1 h at 4 °C. The lysate was centrifuged again, and the supernatant was loaded onto a Strep-Tactin affinity column (IBA). After washing twice, the protein was eluted in 20 mM Hepes, pH7.5, 150 mM NaCl, 2.5 mM desthiobiotin, 0.02% DDM and concentrated. The concentrated protein was further purified by Superdex 200 increase column (GE Healthcare) in buffer B with 0.02% DDM. The peak fractions were mixed with amphipol A8-35 (Anatrace) at 1:3 (w/w) for 4 h. Detergent was removed with Bio-Beads (Bio-Rad) overnight and further separation on a Superdex 200 increase column in PBS (Sigma-Aldrich). […]

NPC1 = target: T2, NPC1 (Cricetulus griseus, UniProt Q9JLG3); conditions: cited from earlier work; for inhibition of P-X cross-linking to NPC1: cultured cells
T2 construct: CHO-7 cells in the medium are deprived of cholesterol to induce the LDL receptors biosynthesis; endogenous in cells; host or cells: CHO-7 cells
T2 sequence (Q9JLG3 23-1277): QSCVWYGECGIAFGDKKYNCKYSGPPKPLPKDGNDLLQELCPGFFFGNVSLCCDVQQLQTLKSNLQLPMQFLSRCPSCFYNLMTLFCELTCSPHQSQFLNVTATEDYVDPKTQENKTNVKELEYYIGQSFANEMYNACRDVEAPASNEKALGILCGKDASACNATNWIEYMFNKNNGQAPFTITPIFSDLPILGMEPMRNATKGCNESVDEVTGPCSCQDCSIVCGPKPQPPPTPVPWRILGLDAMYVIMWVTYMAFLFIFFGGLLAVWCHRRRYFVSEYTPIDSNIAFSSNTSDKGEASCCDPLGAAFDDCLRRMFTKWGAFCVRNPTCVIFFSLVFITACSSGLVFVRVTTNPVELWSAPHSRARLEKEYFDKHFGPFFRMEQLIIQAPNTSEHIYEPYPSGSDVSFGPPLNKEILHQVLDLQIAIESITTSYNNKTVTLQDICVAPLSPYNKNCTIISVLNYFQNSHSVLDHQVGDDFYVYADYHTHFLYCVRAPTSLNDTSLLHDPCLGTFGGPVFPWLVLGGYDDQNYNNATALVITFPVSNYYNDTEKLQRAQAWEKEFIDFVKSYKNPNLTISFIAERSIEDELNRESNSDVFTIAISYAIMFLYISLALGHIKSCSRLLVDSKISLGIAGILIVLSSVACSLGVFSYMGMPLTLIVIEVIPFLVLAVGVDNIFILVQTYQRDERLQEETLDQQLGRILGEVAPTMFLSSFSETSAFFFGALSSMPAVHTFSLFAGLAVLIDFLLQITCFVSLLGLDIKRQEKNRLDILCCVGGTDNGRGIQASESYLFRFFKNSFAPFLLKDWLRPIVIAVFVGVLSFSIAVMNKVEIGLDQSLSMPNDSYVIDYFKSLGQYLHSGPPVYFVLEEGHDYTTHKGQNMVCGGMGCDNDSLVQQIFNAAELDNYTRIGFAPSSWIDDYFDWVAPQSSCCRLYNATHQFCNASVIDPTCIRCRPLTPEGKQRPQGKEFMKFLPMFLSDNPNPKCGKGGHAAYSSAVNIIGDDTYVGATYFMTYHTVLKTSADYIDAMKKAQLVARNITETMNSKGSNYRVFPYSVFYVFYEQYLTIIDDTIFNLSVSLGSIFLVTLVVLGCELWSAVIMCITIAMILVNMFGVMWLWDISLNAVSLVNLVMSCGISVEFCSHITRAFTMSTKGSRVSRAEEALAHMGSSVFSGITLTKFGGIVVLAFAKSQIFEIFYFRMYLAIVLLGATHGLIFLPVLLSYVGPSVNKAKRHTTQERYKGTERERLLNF

CCC(C)n1ncn(-c2ccc(N3CCN(c4ccc(OCC5COC(Cn6cncn6)(c6ccc(Cl)cc6Cl)O5)cc4)CC3)c(Br)c2)c1=O (stereo not shown) [I-Br]
competition with cross-linking of P-X to purified NPC1 (human NPC1): binds to NPC1 in a similar manner to the itraconazole mixture; also recorded: competes

CCC(C)n1ncn(-c2ccc(N3CCN(c4ccc(OCC5COC(Cn6cncn6)(c6ccc(Cl)cc6Cl)O5)cc4)CC3)cc2)c1=O (stereo not shown) [Itraconazole mixture, itraconazole]
inhibition of P-X cross-linking to NPC1 (NPC1): inhibited | competition with cross-linking of P-X to purified NPC1 (human NPC1): competed

CC(=O)N1CCN(c2ccc(OCC3COC(Cn4ccnc4)(c4ccc(Cl)cc4Cl)O3)cc2)CC1 (stereo not shown) [Ketoconazole, ketoconazole]
inhibition of P-X cross-linking to NPC1 (NPC1): did not block

C#CCOc1ccc(C(=O)c2ccc(C(=O)OC(C)C(CC)n3ncn(-c4ccc(N5CCN(c6ccc(OCC7COC(Cn8cncn8)(c8ccc(F)cc8F)O7)cc6)CC5)cc4)c3=O)cc2)cc1 (stereo not shown) [P-X]
cross-linking of P-X to NPC1 in cultured cells (NPC1; added at nanomolar concentration): can be cross-linked | cross-linking of P-X to purified NPC1 (human NPC1; amphipol-reconstituted NPC1 in PBS without detergent): can cross-link | cross-linking of P-X to purified NPC1 (human NPC1; protein solubilized in digitonin): not when the protein was solubilized in digitonin
